Source: patent publication US20260224758A1, “ALPHA-SYNUCLEIN BINDERS AND METHODS OF USE” (Merck Sharp & Dohme LLC, priority 2023, published 2026)

Columns and labels:
[1] = biological target: T1, alpha-synucleinopathy of PD brain (Homo sapiens, UniProt P37840); assay: In vitro autoradiography of [^3H]-2 on PD brain sections with IHC comparison; format: binding; settings: PD brain amygdala section, 3 nM radioligand
T1 construct: They are post-mortem tissue from donors with clinical diagnosis of PD or non-PD; tissue Banner Sun Health Institute; Sydney Brain Bank; Analytic Biological Services Inc; Discovery Life Science; host or cells: human PD cerebral cortex homogenates (A4); human PD amygdala cryosections (A5)
Method: (§1) To assess presence of alpha synucleinopathy (Lewy body, LB and Lewy neurites, LN) in the tested human brain samples, the adjacent human PD brain slices were used for Autoradiography (ARG) and Immunihistochemistry (1HC) studies. ARG was done using radio-labelled compounds which bind to LB and LN of PD brain sections. 1HC was performed with antibodies for LB & LN (LB509), Aβ (6E10) and p-tau (AT8). Tissue homogenate binding was performed using human PD brain homogenates of cerebral cortex. Human brains from donor without neurological disorder were used as control in the same study.
The frozen human brain samples of Parkinson's disease (PD) were provided by Banner Sun Health Institute (USA) and Sydney Brain Bank (Australia) through collaboration with Michael J Fox Foundation (MJFF). Additional PD and non-PD brain samples were purchased from vendors (Analytic Biological Services Inc., ABS, and Discovery Life Science, DLS). […] Total binding of radioligand in a brain slice was defined in the absence of competitor, and non-displaceable binding (NDB) was determined in the presence of competitor (1.0 μM unlabeled selfblock). […] After three weeks exposure, the plates were scanned in Amersham Typhoon Imager, and the scanned images were analyzed using MCID 7.1 software. [^3H]-microscales (Amersham Biosciences, GE), were used for quantification of radioligand binding density. […]

[2] = biological target: human Parkinson's Disease tissue homogenates (Homo sapiens, UniProt P37840); assay: Hot saturation binding of [^3H]-2 in human PD cerebral cortex homogenates; settings: PD Cortex (n = 5)
Method: as §1
The frozen human brain samples of Parkinson's disease (PD) were provided by Banner Sun Health Institute (USA) and Sydney Brain Bank (Australia) through collaboration with Michael J Fox Foundation (MJFF). […]
[^3H]-2 was synthesized by Radio Compound Labelling Synthesis Group at Merck. […] Total binding was defined in the absence of competing compound, and non-displaceable binding was determined in the presence of 1 μM unlabeled self-block. […]
Incubation was carried out at 37° C. for 120 minutes, and then the assay samples were filtered onto GF/C filters using Skatron 12 well harvester, washing on setting 5-5-5 (~3×2 ml) ice cold buffer (Tris, pH 7.5). […] Add liquid scintillation fluid (2 mL Ultima Gold) into each vial, allow to soak into filters for 4 hours and counted in on Perkin Elmer Tri-Carb 2900TR for 1 minute. […]

[3H]C([3H])([3H])OC[C@H]1CN(c2ncc(C=Cc3ccc(-n4ccnc4)nc3)cn2)CCN1c1ncccn1 [[^3H]-2, [^3H]-(R,E)-5-(2-(6-(1H-imidazol-1-yl)pyridin-3-yl)vinyl)-2-(3-(methoxymethyl)-4-(pyrimidin-2-yl)piperazin-1-yl)pyrimidine]
autoradiographic binding versus LB509 and AT8 immunoreactivity [1]: specific binding
Bmax [2]: 17.0 ± 5.2 nM
